Experimental data taken from patent US20180243325A1, “METHOD FOR INHIBITING ABSORPTION OF AND/OR PROMOTING EXCRETION OF LIPIDS USING D-PSICOSE” (CJ CHEILJEDANG CORPORATION, priority 2015, published 2018).

Assays:
Type in all cases: in vivo, C57BL/6J mice
[1] = system: high-fat diet-induced obese mice; test: Plasma leptin, resistin, adiponectin levels and L:A ratio; conditions: FIG. 3, HFD+5% w/w in diet, 16 weeks
Description: (§1) First, 4-week-old male C57BL/6J mice (60 total) were purchased from Jackson Laboratory. The animals were acclimated to the vivarium in a thermo-hygrostat (20-23° C., 45-65%) under a 12 h light/dark cycle and fed a pelletized commercial non-purified diet for 1 week after arrival. The mice were then randomly divided into 6 groups (n=10) and fed the respective experimental diets for 16 weeks: normal diet group (ND, American Institute of Nutrition (AIN)-76 semi-synthetic diet), high-fat diet group (HFD, 20% fat+1% cholesterol based on AIN-76 diet), PSI group (HFD+5% D-psicose, w/w, Sigma Chemical Company), ERY group (HFD+5% erythritol, w/w, Sigma Chemical Company), GLU group (HFD+5% D-glucose, w/w, Sigma Chemical Company), and FRU group (HFD+5% D-fructose, w/w, Sigma Chemical Company). All high-fat diet-fed groups were allowed to ingest the same calories by pair feeding based on the PSI group. The mice had ad libitum access to distilled water during the experimental period. Their feed intakes and body weights were measured daily and biweekly, respectively. The organ weights and the adipose tissue weights of the mice were measured after sacrificing the animals. Plasma leptin, resistin, and adiponectin levels were measured using Bio-Rad multiplex kits (Hercules, Calif., USA). All samples were assayed in duplicate and analyzed using a Luminex 200 labmap system (Luminex, Austin, Tex., USA). Data analysis was performed using Bio-Plex Manager software version 4.1.1 (Bio-Rad, Hercules, Calif., USA).

[2] = system: fatty acid synthase (FAS); test: FAS activity in epididymal white adipose tissue; conditions: FIG. 5A, HFD+5% w/w in diet, 16 weeks
Description: as §1, with “Samples” for “Plasma leptin, resistin, and adiponectin levels”, “prepared” for “measured using Bio-Rad multiplex kits (Hercules, Calif., USA). All samples were assayed in duplicate”, “according to the method developed by Hulcher and Oleson. Specifically, the activity of fatty acid synthase (FAS) as” for “using”, “lipid regulating enzyme of epididymal white adipose tissue” for “Luminex 200 labmap system (Luminex, Austin, Tex., USA). Data analysis”, “measured by spectrophotometric assay according to the method described by Nepokroeff et al. Each sample was mixed with 100 μl of cytoplasmic fraction and the mixture was allowed to react at 30° C. for 2 min. A reduction in absorbance at 340 nm was measured. FAS activity units were expressed as nanomoles (nmol) of NADPH oxidized for 1 min per mg of cytoplasmic fraction. Fatty acid β-oxidation activity was measured by monitoring the reduction of NAD^+ to NADH in the presence of palmitoyl-CoA, as described by Lazarow. β-oxidation activity units were expressed as nanomoles (nmol) of NADH produced for 1 min per mg of mitochondrial protein.” for “performed using Bio-Plex Manager software version 4.1.1 (Bio-Rad, Hercules, Calif., USA).”

[3] = system: FAS (fatty acid synthase, 14101); test: Hepatic mRNA expression, real-time quantitative PCR: FAS; conditions: FIG. 6, liver, HFD+5% w/w in diet, 16 weeks
Description: as §1, with “animals.” for “animals. Plasma leptin, resistin, and adiponectin levels were measured using Bio-Rad multiplex kits (Hercules, Calif., USA). All samples were assayed in duplicate and analyzed using a Luminex 200 labmap system (Luminex, Austin, Tex., USA). Data analysis was performed using Bio-Plex Manager software version 4.1.1 (Bio-Rad, Hercules, Calif., USA).”
(§2) Samples were prepared and analyzed as previously described. Specifically, total RNA was synthesized into cDNA using a QuantiTect Reverse Transcription kit (QIAGEN Gmb1h, Hilden, Germany). RNA expression was quantified with real-time quantitative PCR using a QuantiTect SYBR Green PCR kit (QIAGEN Gmb1h, Hilden, Germany). Primers were designed to detect FAS (fatty acid synthase, 14101), ACC1 (Acetyl-CoA carboxylase 1, 107476), CPT1α (Carnitine palmitoyltransferase 1α, 12894), and CPT2 (Carnitine palmitoyltransferase 2, 12896). GAPDH was used as an internal transcription marker. The reaction was performed a total of 40 cycles (each consisting of 15 sec at 94° C., 30 sec at 58° C., 30 sec at 72° C., and 15 sec at 65° C.). Fluorescence signals were monitored every cycle and the resulting threshold cycles (Ct) were analyzed. mRNA expression in each experimental group was quantified using a CFX96 Real time system (Bio-rad, USA).

[4] = system: ACC1 (Acetyl-CoA carboxylase 1, 107476); test: Hepatic mRNA expression, real-time quantitative PCR: ACC1; conditions: FIG. 6, liver, HFD+5% w/w in diet, 16 weeks
Description: as §1, with “animals.” for “animals. Plasma leptin, resistin, and adiponectin levels were measured using Bio-Rad multiplex kits (Hercules, Calif., USA). All samples were assayed in duplicate and analyzed using a Luminex 200 labmap system (Luminex, Austin, Tex., USA). Data analysis was performed using Bio-Plex Manager software version 4.1.1 (Bio-Rad, Hercules, Calif., USA).”
as §2

[5] = system: CPT2 (Carnitine palmitoyltransferase 2, 12896); test: Hepatic mRNA expression, real-time quantitative PCR: CPT2; conditions: FIG. 6, liver, HFD+5% w/w in diet, 16 weeks
Description: as §1, with “animals.” for “animals. Plasma leptin, resistin, and adiponectin levels were measured using Bio-Rad multiplex kits (Hercules, Calif., USA). All samples were assayed in duplicate and analyzed using a Luminex 200 labmap system (Luminex, Austin, Tex., USA). Data analysis was performed using Bio-Plex Manager software version 4.1.1 (Bio-Rad, Hercules, Calif., USA).”
as §2

[6] = system: high-fat diet-induced obese mice; test: Lipid excretion in feces; conditions: FIG. 7, HFD+5% w/w in diet, 16 weeks
Description: as §1, with “animals.” for “animals. Plasma leptin, resistin, and adiponectin levels were measured using Bio-Rad multiplex kits (Hercules, Calif., USA). All samples were assayed in duplicate and analyzed using a Luminex 200 labmap system (Luminex, Austin, Tex., USA). Data analysis was performed using Bio-Plex Manager software version 4.1.1 (Bio-Rad, Hercules, Calif., USA).”
Lipids were extracted from feces from mice in the normal diet group (ND) and the high-fat diet groups (HFD, ERY, GLU, FRU, and PSI) and dried. Then, each of the dried lipid extracts was dissolved in 1 ml of ethanol. 200 μl of the lipid solution was emulsified in a solution of Triton X-100 and sodium cholate in distilled water. Triglyceride, cholesterol, and fatty acid levels in the feces were analyzed using the same enzymatic kits as those used in Example 2.

| SMILES | leptin:adiponectin ratio (L:A ratio) [1] | plasma leptin level [1] | plasma resistin level [1] | FAS activity in adipose tissue [2] | hepatic mRNA expression level of FAS [3] | hepatic mRNA expression level of ACC1 [4] | hepatic mRNA expression level of CPT2 [5] | cholesterol level in the feces [6] | fatty acid level in the feces [6] | triglyceride level in the feces [6] |
| --- | --- | --- | --- | --- | --- | --- | --- | --- | --- | --- |
| OC[C@@H](O)[C@@H](O)CO [ERY, erythritol] | increased significantly compared to those in the ND group | increased significantly compared to those in the ND group | increased significantly compared to those in the ND group | increased significantly compared to those in the ND group | significantly lower than those in the ND group | significantly lower than those in the ND group | significantly lower than those in the ND group | significantly higher than those from the normal diet group | significantly higher than those from the normal diet group | significantly higher than those from the normal diet group |
| O=C(CO)[C@@H](O)[C@H](O)[C@H](O)CO [FRU, D-fructose] | increased significantly compared to those in the ND group | increased significantly compared to those in the ND group | increased significantly compared to those in the ND group | increased significantly compared to those in the ND group | significantly lower than those in the ND group | significantly lower than those in the ND group | significantly lower than those in the ND group | significantly higher than those from the normal diet group | significantly higher than those from the normal diet group | significantly higher than those from the normal diet group |
| O=C[C@H](O)[C@@H](O)[C@H](O)[C@H](O)CO [GLU, D-glucose] | increased significantly compared to those in the ND group | increased significantly compared to those in the ND group | increased significantly compared to those in the ND group | increased significantly compared to those in the ND group | significantly lower than those in the ND group | significantly lower than those in the ND group | significantly lower than those in the ND group | significantly higher than those from the normal diet group | significantly higher than those from the normal diet group | significantly higher than those from the normal diet group |
| O=C(CO)[C@H](O)[C@H](O)[C@H](O)CO [PSI, D-psicose] | reduced considerably to levels similar to those in the ND group | reduced considerably to levels similar to those in the ND group | reduced considerably to levels similar to those in the ND group | decreased significantly compared to those in other high-fat diet groups | much significantly lower than those in the ND group | much significantly lower than those in the ND group | much significantly lower than those in the ND group | significantly higher than those from other high-fat diet groups | significantly higher than those from other high-fat diet groups | significantly higher than those from other high-fat diet groups |
